This test has as its system RAW 264.7 γNO(−) cells. In words: Cytokine induction and ELISAs in mouse macrophages (RAW 264.7 γNO(−) cells). It counts as cell-based. Particulars: for secretion of cytokines (TNF-α, IL-6, IP-10, IFN-β and IL-1β): Example III, data not shown; for Cytokine top value of dose-response curve, pro Il-1β: cell lysates; for Cytokine top value of dose-response curve, pro Il-1β / TNF-α and IFN-β production, dose response (in words) / Cytokine top value of dose-response curve, IFN-β / Cytokine top value of dose-response curve, IL-6 / Cytokine top value of dose-response curve, IP-10 / Cytokine top value of dose-response curve, RANTES / Cytokine top value of dose-response curve, TNF-α: 5.5 h; for Cytokine top value of dose-response curve, pro Il-1β / Cytokine top value of dose-response curve, IFN-β / Cytokine top value of dose-response curve, IL-6 / Cytokine top value of dose-response curve, IP-10 / Cytokine top value of dose-response curve, RANTES / Cytokine top value of dose-response curve, TNF-α: best-fit value ± std. error; for TNF-α and IFN-β production, dose response (in words) / Cytokine top value of dose-response curve, IFN-β / Cytokine top value of dose-response curve, IL-6 / Cytokine top value of dose-response curve, IP-10 / Cytokine top value of dose-response curve, RANTES / Cytokine top value of dose-response curve, TNF-α / Cytokine top value of dose-response curve, IL-1β: supernatant; for TNF-α and IFN-β production, dose response (in words): wide range of concentrations; for Cytokine top value of dose-response curve, IL-1β: 24 h, best-fit value ± std. error (# plateau not reached for LPS). As to the method:
Mouse macrophages (RAW 264.7 γNO(−) cells) were exposed over a wide range of concentrations to compounds 1-5 and E. coli 055:B5 LPS. After 5.5 hours, the supernatants were harvested and examined for mouse TNF-α and IFN-β using a commercial and in-house developed capture ELISA assay, respectively. Potencies (EC50, concentration producing 50% activity) and efficacies (maximal level of production) were determined by fitting the dose-response curves to a logistic equation using PRISM software. […] It has also been shown that removal of the KDO moieties by mild acidic treatment reduces cellular responses (Demchenko et al., J. Am. Chem. Soc. 2003, 125, 6103-6112).
Having established the EC50 values of TNF-α and IFN-β secretion by compounds 1-5 and E. coli 055:B5 LPS, attention was focused on IL-6, IP-10, RANTES, and IL-1β responses. Thus, the previously harvested supernatants were analyzed for these cytokines using capture ELISA assays (FIG. 4, Table 1). For IL-6, IP-10, and RANTES, a short incubation time of 5.5 hrs was sufficient for detection. To achieve significant IL-1β secretion, the incubation had to be extended to 24 hrs. […] IL-1β is expressed as a pro-protein (pro-IL-1β), which is cleaved by caspase-1 into its active form (IL-1β), which is then secreted. Indeed, analyzing IL-1β of the cell lysates by Western blotting confirmed that it was present as a pro-protein (data not shown). TNF-α is also produced as a pro-protein, which is proteolitically cleaved by tumor necrosis factor-α converting enzyme (TACE) (Skotnicki and Levin, Annu. Rep. Med. Chem. 2003, 38, 153-162; Duffy et al., Thromb. Haemost. 2003, 89, 622-631). […] Furthermore, for each of the synthetic compounds and LPS, EC50 values of secreted TNF-α and intracellular pro-IL-1β were very similar. However, EC50 values for secreted mature IL-1β were larger by as much as 100-fold.
RAW 264.7 γNO(−) cells were plated on the day of the exposure assay as 2×10^5 cells/well in 96-well tissue culture plates (Nunc). Cells were incubated with different stimuli for 5.5 and 24 hours in replicates of five. Culture supernatants were then collected, pooled, and stored frozen (−80° C.) until assayed for cytokine production. After removal of the supernatant, cells were lysed by adding PBS containing Tween 20 (0.01%) and BSA (1%) in the same volume as that of the supernatant and sonicating for 5 min. The cell lysates were pooled and stored frozen (−80° C.) until assayed for cytokine production.
All cytokine ELISAs were performed in 96-well MaxiSorp plates (Nunc). Cytokine DuoSet ELISA Development Kits (R&D Systems) were used for the cytokine quantification of mouse TNF-α, IL-6, IP-10, RANTES, and IL-1β according to the manufacturer's instructions. The absorbance was measured at 450 nm with wavelength correction set to 540 nm using a microplate reader (BMG Labtech). Concentrations of IFN-β in culture supernatants were determined as follows. ELISA MaxiSorp plates were coated with rabbit polyclonal antibody against mouse IFN-β (PBL Biomedical Laboratories). IFN-β in standards and samples was allowed to bind to the immobilized antibody. Rat anti-mouse IFN-β antibody (USBiological) was then added, producing an antibody-antigen-antibody “sandwich”. Next, horseradish peroxidase (HRP) conjugated goat anti-rat IgG (H+L) antibody (Pierce) and a chromogenic substrate for HRP 3,3′,5,5′-tetramethylbenzidine (TMB; Pierce) were added. After the reaction was stopped, the absorbance was measured at 450 nm with wavelength correction set to 540 nm. All cytokine values are presented as the means±SD of triplicate measurements, with each experiment being repeated three times.
Concentration-response data were analyzed using nonlinear least-squares curve fitting in Prism (GraphPad Software, Inc.). […] The Hillslope was set at 1 to be able to compare the EC50 values of the different inducers. […]

We go through five molecules from patent US9309276B2, “Synthetic lipid A derivative” (University of Georgia Research Foundation, Inc., priority 2007, dated 2016).

Consider `CCCCCCCCCCCCCCCC(=O)O[C@H](CCCCCCCCCCCC(C)C)CC(=O)N[C@H]1[C@H](OC[C@H]2O[C@H](OP(=O)(O)O)[C@H](NC(=O)C[C@H](O)CCCCCCCCCCCC(C)C)[C@@H](OC(=O)C[C@H](O)CCCCCCCCCCCCC)[C@@H]2O)O[C@H](CO)[C@@H](O)[C@@H]1O` [Compound 103, 6-O-{2-Deoxy-2-[(R)-3-hexadecanoyloxy-15-methyl-hexadecanoylamino]-β-D-glucopyranosyl}-3-O—[(R)-3-hydroxy-hexadecanoyl]-2-deoxy-2-[(R)-3-hydroxy-15-methyl-hexadecanoylamino]-α-D-glucopyranose 1-phosphate], for which the “secretion of cytokines (TNF-α, IL-6, IP-10, IFN-β and IL-1β)” value was “did not lead to secretion of cytokines”.
On to `CCCCCCCCCCCCCCCC(=O)O[C@H](CCCCCCCCCCCC(C)C)CC(=O)N[C@H]1[C@H](OC[C@H]2O[C@H](OP(=O)(O)O)[C@H](NC(=O)C[C@H](O)CCCCCCCCCCCC(C)C)[C@@H](O)[C@@H]2O)O[C@H](CO)[C@@H](O)[C@@H]1ONC(=O)C[C@H](O)CCCCCCCCCC(C)C` [Compound 104, 6-O-{2-Deoxy-2-[(R)-3-hexadecanoyloxy-15-methyl-hexadecanoylamino]-3-O—[(R)-3-hydroxy-13-methyl-tetradecanoylamino]-β-D-glucopyranosyl}-2-deoxy-2-[(R)-3-hydroxy-15-methyl-hexadecanoylamino]-α-D-glucopyranose 1-phosphate], for which the “secretion of cytokines (TNF-α, IL-6, IP-10, IFN-β and IL-1β)” value is “did not lead to secretion of cytokines”.
Regarding `CCCCCCCCCCCCCC(=O)OC(CCCCCCCCCCC)CC(=O)OC1C(NC(=O)CC(CCCCCCCCCCC)OC(=O)CCCCCCCCCCC)C(OCC2OC(OP(=O)(O)O)C(NC(=O)CC(O)CCCCCCCCCCC)C(OC(=O)CC(O)CCCCCCCCCCC)C2O)OC(CO)C1OP(=O)(O)O` [Lipid A 1, 6-O-{2-Deoxy-2-[(R)-3-dodecanoyloxy-tetradecanoylamino]-3-O—[(R)-3-tetradecanoyloxy-tetradecanoyl]-β-D-glucopyranosyl}-2-deoxy-3-O—[(R)-3-hydroxy-tetradecanoyl]-2-[(R)-3-hydroxy-tetradecanoylamino]-α-D-glucopyranose 1,4′-bisphosphate], the “Cytokine top value of dose-response curve, pro Il-1β” value (“Cytokine top value … pro Il-1β” for short) is recorded as 565 ± 25 pg/mL; the “TNF-α and IFN-β production, dose response (in words)” value (shortened to “TNF-α and IFN-β production”) is given as “clear dose response curves”; the “Cytokine top value of dose-response curve, IFN-β” value (“Cytokine top value … IFN-β” below) stood at 724 ± 25 pg/mL; the “Cytokine top value of dose-response curve, IL-6” value (from here on “Cytokine top value … IL-6”) stood at 249 ± 29 pg/mL. The “Cytokine top value of dose-response curve, IP-10” value (from here on “Cytokine top value … IP-10”) was 6778 ± 214 pg/mL; the “Cytokine top value of dose-response curve, RANTES” value (shortened to “Cytokine top value … RANTES”) was determined as 5531 ± 214 pg/mL; the “Cytokine top value of dose-response curve, TNF-α” value (“Cytokine top value … TNF-α” for short) was 3924 ± 179 pg/mL; the “Cytokine top value of dose-response curve, IL-1β” value is on record as 92 ± 2 pg/mL.
Turning to `CCCCCCCCCCCC(=O)OC(CCCCCCCCCCC)CC(=O)NC1C(OCC2OC(OP(=O)(O)O)C(NC(=O)CC(O)CCCCCCCCCCC)C(OC(=O)CC(O)CCCCCCCCC)C2O)OC(CO)C(OP(=O)(O)O)C1OC(=O)CC(CCCCCCCCC)OC(=O)CCCCCCCCCCC` [Lipid A 2, 6-O-{2-Deoxy-3-O—[(R)-3-dodecanoyloxy-dodecanoyl]-2-[(R)-3-dodecanoyloxy-tetradecanoylamino]-β-D-glucopyranosyl}-2-deoxy-3-O—[(R)-3-hydroxy-dodecanoyl]-2-[(R)-3-hydroxy-tetredecanoylamino]-α-D-glucopyranose 1,4′-bisphosphate], the “Cytokine top value … pro Il-1β” value was 587 ± 87 pg/mL; the “TNF-α and IFN-β production” value was “clear dose response curves”; the “Cytokine top value … IFN-β” value was found to be 654 ± 37 pg/mL; the “Cytokine top value … IL-6” value turned out to be 299 ± 42 pg/mL. The “Cytokine top value … IP-10” value was determined as 7207 ± 277 pg/mL; the “Cytokine top value … RANTES” value was 6851 ± 216 pg/mL; the “Cytokine top value … TNF-α” value is given as 4223 ± 329 pg/mL; the “Cytokine top value of dose-response curve, IL-1β” value is listed as 82 ± 2 pg/mL.
Regarding `CCCCCCCCCCCCCCCC(=O)OC(CCCCCCCCCCC)CC(=O)NC1C(OP(=O)(O)O)OC(COC2OC(CO)C(OP(=O)(O)O)C(OC(=O)CC(CCCCCCCCC)OC(=O)CCCCCCCCCCC)C2NC(=O)CC(CCCCCCCCCCC)OC(=O)CCCCCCCCCCC)C(O)C1OC(=O)CC(O)CCCCCCCCC` [Lipid A 4, 6-O-{2-Deoxy-3-O—[(R)-3-dodecanoyloxy-dodecanoyl]-2-[(R)-3-dodecanoyloxy-tetradecanoylamino]-β-D-glucopyranosyl}-2-deoxy-2-[(R)-3-hexadecanoyloxy-tetredecanoylamino]-3-O—[(R)-3-hydroxy-dodecanoyl]-α-D-glucopyranose 1,4′-bisphosphate], the “Cytokine top value … pro Il-1β” value is listed as 610 ± 35 pg/mL; the “TNF-α and IFN-β production” value is recorded as “clear dose response curves”; the “Cytokine top value … IFN-β” value is on record as 710 ± 44 pg/mL; the “Cytokine top value … IL-6” value turned out to be 233 ± 12 pg/mL. The “Cytokine top value … IP-10” value came out at 7320 ± 415 pg/mL; the “Cytokine top value … RANTES” value came out at 5360 ± 263 pg/mL; the “Cytokine top value … TNF-α” value came out at 4178 ± 250 pg/mL; the “Cytokine top value of dose-response curve, IL-1β” value is 86 ± 4 pg/mL.
